Legend:
Assay in all cases: KINOMEscan competition binding
BRSK2 = biological target: T1, BRSK2 (Homo sapiens, UniProt Q8IWQ3); conditions: read-out: %Inh BRSK2
T1 sequence (Q8IWQ3 1-736): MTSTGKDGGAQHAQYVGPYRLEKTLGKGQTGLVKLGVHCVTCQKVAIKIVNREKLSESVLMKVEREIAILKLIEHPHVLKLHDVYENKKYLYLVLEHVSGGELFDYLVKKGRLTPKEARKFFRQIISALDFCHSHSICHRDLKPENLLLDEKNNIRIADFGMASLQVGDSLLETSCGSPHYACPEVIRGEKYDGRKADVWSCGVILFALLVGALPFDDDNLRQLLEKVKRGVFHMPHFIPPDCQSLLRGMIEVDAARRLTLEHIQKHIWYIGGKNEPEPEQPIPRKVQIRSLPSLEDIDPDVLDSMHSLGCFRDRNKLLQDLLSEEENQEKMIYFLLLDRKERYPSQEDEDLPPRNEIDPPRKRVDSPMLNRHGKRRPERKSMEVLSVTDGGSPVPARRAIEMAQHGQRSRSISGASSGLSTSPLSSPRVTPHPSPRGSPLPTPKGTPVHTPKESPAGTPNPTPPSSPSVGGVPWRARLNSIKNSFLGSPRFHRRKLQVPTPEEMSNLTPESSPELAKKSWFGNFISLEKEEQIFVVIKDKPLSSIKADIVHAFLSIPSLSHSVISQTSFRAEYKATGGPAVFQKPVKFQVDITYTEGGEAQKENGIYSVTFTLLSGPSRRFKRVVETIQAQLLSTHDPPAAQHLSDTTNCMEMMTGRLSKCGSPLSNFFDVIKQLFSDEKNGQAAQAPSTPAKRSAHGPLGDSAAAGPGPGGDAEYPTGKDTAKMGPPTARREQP

DYRK1A = DYRK1A (Homo sapiens, UniProt Q13627); conditions: read-out: %Inh DYRK1A
EPHA8 = biological target: T2, EPHA8 (Homo sapiens, UniProt P29322); conditions: read-out: %Inh EPHA8
T2 sequence (P29322 28-1005): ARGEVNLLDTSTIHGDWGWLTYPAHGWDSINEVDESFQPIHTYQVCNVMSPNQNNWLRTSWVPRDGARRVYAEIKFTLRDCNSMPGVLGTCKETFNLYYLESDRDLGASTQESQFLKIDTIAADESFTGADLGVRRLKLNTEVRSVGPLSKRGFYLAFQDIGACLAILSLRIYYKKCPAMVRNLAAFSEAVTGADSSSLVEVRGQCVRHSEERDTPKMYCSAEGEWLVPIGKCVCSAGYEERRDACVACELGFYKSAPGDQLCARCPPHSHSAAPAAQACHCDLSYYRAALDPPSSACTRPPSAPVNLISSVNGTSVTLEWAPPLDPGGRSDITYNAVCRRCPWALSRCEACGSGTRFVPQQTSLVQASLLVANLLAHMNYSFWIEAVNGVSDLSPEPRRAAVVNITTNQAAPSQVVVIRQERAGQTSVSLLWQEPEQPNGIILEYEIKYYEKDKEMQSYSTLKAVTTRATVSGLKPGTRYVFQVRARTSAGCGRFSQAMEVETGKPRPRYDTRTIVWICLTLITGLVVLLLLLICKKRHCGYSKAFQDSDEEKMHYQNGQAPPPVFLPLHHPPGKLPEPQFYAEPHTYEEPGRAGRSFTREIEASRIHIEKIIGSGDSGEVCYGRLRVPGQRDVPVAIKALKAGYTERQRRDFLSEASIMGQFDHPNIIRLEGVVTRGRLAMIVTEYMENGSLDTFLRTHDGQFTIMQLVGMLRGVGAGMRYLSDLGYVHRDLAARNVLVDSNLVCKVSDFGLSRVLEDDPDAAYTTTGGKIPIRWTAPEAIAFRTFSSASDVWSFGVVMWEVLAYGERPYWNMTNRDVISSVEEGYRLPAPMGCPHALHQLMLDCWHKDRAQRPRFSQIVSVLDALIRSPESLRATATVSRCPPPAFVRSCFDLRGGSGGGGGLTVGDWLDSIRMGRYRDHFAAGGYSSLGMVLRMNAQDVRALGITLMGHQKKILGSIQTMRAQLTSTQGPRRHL

EPHB4 = biological target: T3, EPHB4 (Homo sapiens, UniProt P54760); conditions: read-out: %Inh EPHB4
T3 sequence (P54760 16-987): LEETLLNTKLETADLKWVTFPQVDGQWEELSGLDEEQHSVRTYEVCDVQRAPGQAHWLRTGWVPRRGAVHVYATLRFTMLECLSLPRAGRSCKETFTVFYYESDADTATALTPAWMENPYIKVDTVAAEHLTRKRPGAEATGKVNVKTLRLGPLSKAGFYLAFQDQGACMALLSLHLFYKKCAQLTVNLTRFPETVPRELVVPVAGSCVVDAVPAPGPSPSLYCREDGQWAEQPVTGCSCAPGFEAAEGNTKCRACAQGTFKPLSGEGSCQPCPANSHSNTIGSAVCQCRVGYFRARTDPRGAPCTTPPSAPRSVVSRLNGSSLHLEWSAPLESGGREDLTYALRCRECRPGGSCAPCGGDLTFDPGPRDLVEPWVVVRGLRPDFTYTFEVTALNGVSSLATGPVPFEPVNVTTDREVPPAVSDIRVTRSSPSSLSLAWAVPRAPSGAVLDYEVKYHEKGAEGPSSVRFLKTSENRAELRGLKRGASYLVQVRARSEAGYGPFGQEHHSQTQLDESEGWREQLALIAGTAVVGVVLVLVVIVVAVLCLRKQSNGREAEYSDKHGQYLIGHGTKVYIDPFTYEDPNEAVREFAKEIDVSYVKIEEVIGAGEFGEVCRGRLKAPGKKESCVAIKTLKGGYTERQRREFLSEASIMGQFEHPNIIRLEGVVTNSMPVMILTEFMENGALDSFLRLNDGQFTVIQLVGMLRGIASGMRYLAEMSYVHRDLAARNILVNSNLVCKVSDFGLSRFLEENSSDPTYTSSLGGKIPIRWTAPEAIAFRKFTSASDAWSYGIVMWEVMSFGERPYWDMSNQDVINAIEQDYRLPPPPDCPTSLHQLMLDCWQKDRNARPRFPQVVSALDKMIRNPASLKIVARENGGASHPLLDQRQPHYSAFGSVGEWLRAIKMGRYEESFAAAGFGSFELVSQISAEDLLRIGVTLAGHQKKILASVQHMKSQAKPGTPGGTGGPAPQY

CS(=O)(=O)Cc1ccc(Nc2nccc(-c3c(-c4cccc(NC(=O)C5CCCCC5)c4)nn4ncccc34)n2)cc1 [UNC10225159A]
inhibition at 1 µM (BRSK2): 0%
inhibition at 1 µM (DYRK1A): 26%
inhibition at 1 µM (EPHA8): 15%
inhibition at 1 µM (EPHB4): 0%

Cn1cc(-c2cnc(N)c3c(-c4ccc5c(c4)CCN5C(=O)Cc4ccccc4)csc23)cn1 [UNC10225012A]
inhibition at 1 µM (BRSK2): 7%
inhibition at 1 µM (DYRK1A): 0%
inhibition at 1 µM (EPHA8): 8%
inhibition at 1 µM (EPHB4): 9%

O=c1cc(N2CCOCC2)nc2n(Cc3cccc(Cl)c3Cl)c(C3CC3)nn12 [UNC10225469A]
inhibition at 1 µM (BRSK2): 0%
inhibition at 1 µM (DYRK1A): 2%
inhibition at 1 µM (EPHA8): 9%
inhibition at 1 µM (EPHB4): 3%

COc1cccc(OC)c1C(=O)Nc1cccc(-c2nn3ccccc3c2-c2ccnc(Nc3cccc(F)c3)n2)c1 [UNC10225310A]
inhibition at 1 µM (BRSK2): 16%
inhibition at 1 µM (DYRK1A): 0%
inhibition at 1 µM (EPHA8): 17%
inhibition at 1 µM (EPHB4): 8%

Cc1ccc(NC(=O)Nc2cccc(C(F)(F)F)c2)cc1 [UNC10225187A]
inhibition at 1 µM (BRSK2): 0%
inhibition at 1 µM (DYRK1A): 0%
inhibition at 1 µM (EPHA8): 3%
inhibition at 1 µM (EPHB4): 0%

From publication PMC5540273, “Progress towards a public chemogenomic set for protein kinases and a call for contributions” (PLoS ONE, 2017)
